Values of other authors in patent publication US8167920B2, “Intranasal delivery of compounds that reduce intrancranial pressure” (Codman & Shurtleff, Inc., priority 2006, dated 2012).

Assays:
[1] = tested on: rat mesenteric lymphatics
[2] = tested on: mesenteries (lymphatic pump); conditions: 15 minutes superfusion of 30 uM into the mesenteries

SMILES | inhibition of the active lymph pump [1] | increase in lymphatic pump flow index [2]
OO [hydrogen peroxide] | intense inhibition | –
COC(=O)[C@@H](N)CCCNC(=N)N[N+](=O)[O-] [L-NAME] | – | ~40%
